Test results: patent US9980943B2, “Methods of treating muscular dystrophy” (BOARD OF REGENTS OF THE NEVADA SYSTEM OF HIGHER EDUCATION, …, priority 2013, dated 2018)

Assays:
Assay type in all cases: cell-based, mouse
[1] = tested on: α7 integrin (LacZ reporter in α7βgal+/− myoblasts); assay: Myoblast α7+/LacZ integrin FDG assay (Burkin assay in myoblasts, 96-well); conditions: α7+/LacZ myoblasts, 96-well
[2] = tested on: α7 integrin (LacZ reporter in α7+/LacZ myotubes); assay: Myotube α7 integrin FDG assay (Burkin assay in myotubes, 96-well); conditions: myotubes
[3] = tested on: β-galactosidase in CMV-LacZ C2C12 myotubes; assay: CMV-LacZ secondary screen in C2C12 myotubes (β-Gal stabilizing assay); conditions: for CMV-LACZ in Myotubes (β-galactosidase activity relative to DMSO): CMV-LacZ C2C12 myotubes, 96-well format
Summary of the method: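 β-gal stabilization was measured in C2C12 myoblasts or myotubes stably transfected with a CMV-driven LacZ construct, using the FDG β-gal assay. Compounds were tested in dose-response at 0.5, 1, 5, 10, 20 and 40 μM, with two replicates per point.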

Row | SMILES | Burkin Assay in Myoblasts, value relative to DMSO ([1]; 0.5 uM) | Burkin Assay in Myoblasts, value relative to DMSO ([1]; 1 uM) | Burkin Assay in Myoblasts, value relative to DMSO ([1]; 5 uM) | Burkin Assay in Myoblasts, value relative to DMSO ([1]; 10 uM) | Burkin Assay in Myoblasts, value relative to DMSO ([1]; 20 uM) | Burkin Assay in Myoblasts, value relative to DMSO ([1]; 40 uM) | Burkin Assay in Myotubes (signal relative to DMSO) ([2]; 0.5 uM) | Burkin Assay in Myotubes (signal relative to DMSO) ([2]; 1 uM) | Burkin Assay in Myotubes (signal relative to DMSO) ([2]; 5 uM) | Burkin Assay in Myotubes (signal relative to DMSO) ([2]; 10 uM) | Burkin Assay in Myotubes (signal relative to DMSO) ([2]; 20 uM) | Burkin Assay in Myotubes (signal relative to DMSO) ([2]; 40 uM) | CMV-LACZ in Myotubes (β-galactosidase activity relative to DMSO) ([3]; 5 uM) | CMV-LACZ in Myotubes (β-galactosidase activity relative to DMSO) ([3]; 10 uM) | CMV-LACZ in Myotubes (β-galactosidase activity relative to DMSO) ([3]; 20 uM) | CMV-LACZ in Myotubes (β-galactosidase activity relative to DMSO) ([3]; 40 uM) | further results
1 | CCc1ccc(Sc2cc(C(=O)NCCN3CCOCC3)c3ccccc3n2)cc1 [MLS000584511-01] | 0.5425 | 0.8885 | 1.033 | 1.087 | 1.05 | 1.072 | 1.0682 | 1.051 | 1.2189 | 1.163 | 1.004 | 1.041 |  |  |  |  | CMV-LACZ in Myotubes, signal relative to DMSO ([3]; 5 uM, C2C12 CMV-LacZ myotubes, fold relative to DMSO): 0.8355; CMV-LACZ in Myotubes, signal relative to DMSO ([3]; 10 uM, C2C12 CMV-LacZ myotubes, fold relative to DMSO): 0.8735; CMV-LACZ in Myotubes, signal relative to DMSO ([3]; 20 uM, C2C12 CMV-LacZ myotubes, fold relative to DMSO): 0.871; CMV-LACZ in Myotubes, signal relative to DMSO ([3]; 40 uM, C2C12 CMV-LacZ myotubes, fold relative to DMSO): 0.7478
2 | O=C(O)CCn1cc(/C=C2/NC(=S)N(c3ccccc3)C2=O)c(-c2ccccc2)n1 [MLS000585616-01] |  |  |  |  |  |  |  |  |  |  |  |  |  |  |  |  | fold induction at 0.5 µM ([1]; Mus musculus, Myoblast, 48 h, 0.5 uM, read-out: Burkin Assay in Myoblasts, value relative to DMSO): 0.681; fold induction at 1 µM ([1]; Mus musculus, Myoblast, 48 h, 1 uM, read-out: Burkin Assay in Myoblasts, value relative to DMSO): 0.943; fold induction at 5 µM ([1]; Mus musculus, Myoblast, 48 h, 5 uM, read-out: Burkin Assay in Myoblasts, value relative to DMSO): 1.01; fold induction at 10 µM ([1]; Mus musculus, Myoblast, 48 h, 10 uM, read-out: Burkin Assay in Myoblasts, value relative to DMSO): 0.977; fold induction at 20 µM ([1]; Mus musculus, Myoblast, 48 h, 20 uM, read-out: Burkin Assay in Myoblasts, value relative to DMSO): 0.935; fold induction at 40 µM ([1]; Mus musculus, Myoblast, 48 h, 40 uM, read-out: Burkin Assay in Myoblasts, value relative to DMSO): 0.932; fold induction at 0.5 µM ([2]; Mus musculus, Myotube, 0.5 uM, read-out: Burkin Assay in Myotubes (signal relative to DMSO)): 0.999; fold induction at 1 µM ([2]; Mus musculus, Myotube, 1 uM, read-out: Burkin Assay in Myotubes (signal relative to DMSO)): 0.958; fold induction at 5 µM ([2]; Mus musculus, Myotube, 5 uM, read-out: Burkin Assay in Myotubes (signal relative to DMSO)): 1.58; fold induction at 10 µM ([2]; Mus musculus, Myotube, 10 uM, read-out: Burkin Assay in Myotubes (signal relative to DMSO)): 1.15; fold induction at 20 µM ([2]; Mus musculus, Myotube, 20 uM, read-out: Burkin Assay in Myotubes (signal relative to DMSO)): 1.03; fold induction at 40 µM ([2]; Mus musculus, Myotube, 40 uM, read-out: Burkin Assay in Myotubes (signal relative to DMSO)): 0.962; fold induction at 5 µM ([3]; Mus musculus, C2C12, read-out: CMV-LACZ in Myotubes, signal relative to DMSO, 5 uM, C2C12 CMV-LacZ myotubes, fold relative to DMSO): 0.903; fold induction at 10 µM ([3]; Mus musculus, C2C12, read-out: CMV-LACZ in Myotubes, signal relative to DMSO, 10 uM, C2C12 CMV-LacZ myotubes, fold relative to DMSO): 0.791; fold induction at 20 µM ([3]; Mus musculus, C2C12, read-out: CMV-LACZ in Myotubes, signal relative to DMSO, 20 uM, C2C12 CMV-LacZ myotubes, fold relative to DMSO): 0.91; fold induction at 40 µM ([3]; Mus musculus, C2C12, read-out: CMV-LACZ in Myotubes, signal relative to DMSO, 40 uM, C2C12 CMV-LacZ myotubes, fold relative to DMSO): 0.879
3 | Cc1ccc(C2Nc3cccc4cccc(c34)N2)s1 [MLS000591198-01] | 1.006 | 0.9251 | 1.037 | 0.9593 | 0.7765 | 0.473 | 1.017 | 0.881 | 1 | 0.8548 | 0.9852 | 0.7014 | 0.9681 | 0.9319 | 0.8338 | 0.4531 | 
4 | N/C(=N\OC(=O)COc1cc(Cl)c(Cl)cc1Cl)c1ccncc1 [MLS000625140-01] | 0.8839 | 0.8709 | 0.8748 | 0.7833 | 0.7589 | 0.6829 | 0.8484 | 0.8454 | 1.114 | 0.9131 | 0.6793 | 0.6514 | 0.9172 | 1.036 | 1.107 | 1.016 | 
